Molecular target: T1, porcine pancreatic elastase (PPE) (Sus scrofa, UniProt P00772)
T1 construct: gene CELA1; commercial native enzyme from porcine pancreas (Sigma Aldrich); PDB 1QGF printed for the docking model of PPE
Assay: spectrophotometric, p-nitroaniline release at […] nm
Format: biochemical
Conditions: read-out: IC50 Values / EI (μg/mL) (converted)

T1 sequence (P00772 27-266): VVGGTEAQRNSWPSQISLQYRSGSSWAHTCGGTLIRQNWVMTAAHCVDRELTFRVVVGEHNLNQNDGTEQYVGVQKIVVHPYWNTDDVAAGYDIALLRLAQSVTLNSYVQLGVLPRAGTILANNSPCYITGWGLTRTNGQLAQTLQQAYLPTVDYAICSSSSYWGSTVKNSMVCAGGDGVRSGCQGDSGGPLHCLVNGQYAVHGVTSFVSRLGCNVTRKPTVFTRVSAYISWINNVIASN

IC50: 759 µM
SMILES: O=C(O[C@@H]1Cc2c(O)cc(O)cc2O[C@@H]1c1cc(O)c(O)c(O)c1)c1cc(O)c(O)c(O)c1 [epigallocatechin gallate]

Source: paper PMC12473510, “Multidisciplinary Bioanalytical Approach to Assess the Anti-Aging Properties of Flower Petals—A Promising Sustainable Cosmetic Ingredient” (Plants, 2025)
